≈ marks a conversion by molar mass, not a printed value.
How the values were obtained:
[1] = biological target: T1, Glucose-dependent insulinotropic receptor (Mus musculus, UniProt Q7TQP3); assay: Agonist activity at mouse GPR119 by cAMP assay; type: functional
T1 sequence (Q7TQP3 whole entry): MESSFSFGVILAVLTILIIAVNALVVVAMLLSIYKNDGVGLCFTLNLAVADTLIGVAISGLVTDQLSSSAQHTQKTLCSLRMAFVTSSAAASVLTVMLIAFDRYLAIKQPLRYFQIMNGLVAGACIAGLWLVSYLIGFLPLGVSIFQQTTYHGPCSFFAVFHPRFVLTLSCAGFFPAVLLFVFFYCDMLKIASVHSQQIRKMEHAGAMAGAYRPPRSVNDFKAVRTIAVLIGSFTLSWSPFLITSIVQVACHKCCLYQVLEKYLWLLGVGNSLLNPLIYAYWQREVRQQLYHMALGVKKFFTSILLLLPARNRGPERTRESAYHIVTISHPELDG

[2] = biological target: T2, Glucose-dependent insulinotropic receptor (Homo sapiens, UniProt Q8TDV5); assay: Agonist activity at human GPR119 expressed in CHO cells by cAMP assay; type: functional, cell-based
T2 sequence (Q8TDV5 whole entry): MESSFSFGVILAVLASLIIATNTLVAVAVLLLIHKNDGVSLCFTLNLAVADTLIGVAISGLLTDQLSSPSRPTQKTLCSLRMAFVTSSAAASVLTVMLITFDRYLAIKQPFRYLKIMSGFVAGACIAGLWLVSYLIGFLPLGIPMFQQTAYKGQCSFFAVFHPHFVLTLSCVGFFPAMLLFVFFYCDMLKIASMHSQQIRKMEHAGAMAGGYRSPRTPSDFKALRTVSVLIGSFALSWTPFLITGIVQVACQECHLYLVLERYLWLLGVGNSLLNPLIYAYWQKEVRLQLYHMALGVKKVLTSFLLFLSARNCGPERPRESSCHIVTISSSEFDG

[3] = biological target: T3, Glucose-dependent insulinotropic receptor (Mus musculus) (UniProt Q7TQP3); assay: Agonist activity at mouse GPR119 by cAMP assay relative to control; type: functional; design: concentration or dose not given beside the values
T3 sequence (whole entry): T1 sequence (Q7TQP3 whole entry)

[4] = Kinetic solubility in FaSSIF at pH 6.5; type: physicochemical; details: FaSSIF, read-out: Kinetic_solubility
[5] = (§1) Half life in Wistar Han rat at 0.5 mg/kg, iv LC-MS/MS method; type: ADME, organism-based; details: Wistar Han, in vivo
[6] = Lipophilicity, logD of the compound at pH 7 by HPLC method; type: physicochemical; details: buffer
[7] = biological target: T4, Glucose-dependent insulinotropic receptor (Homo sapiens) (UniProt Q8TDV5); assay: Agonist activity at human GPR119 by cAMP assay relative to control; type: functional; design: concentration or dose not given beside the values
T4 sequence (whole entry): T2 sequence (Q8TDV5 whole entry)

[8] = Intrinsic clearance in rat liver microsomes; type: ADME; details: read-out: CLH
Rattus norvegicus [9] = assay: Volume of distribution in Wistar Han rat at 0.5 mg/kg, iv LC-MS/MS method; type: ADME, organism-based; details: in vivo
[10] = Fraction unbound in rat plasma; type: ADME, cell-free
Rattus norvegicus [11] = assay: Unbound volume of distribution in Wistar Han rat at 0.5 mg/kg, iv LC-MS/MS method; type: ADME, organism-based; details: in vivo
Rattus norvegicus [12] = assay: as §1; type: ADME, organism-based; details: in vivo

Row | SMILES | EC50 [1] [nM] | EC50 [2] [nM] | Activity [3] [%] | solubility kinetic [4] [µM] | half-life [5] [h] | logD [6] | Activity [7] [%] | CLint scaled [8] [mL/min/kg] | Vd (Rattus norvegicus [9]) [L/kg] | fraction unbound [10] | Vdu (Rattus norvegicus [11]) [L/kg] | t1/2 (Rattus norvegicus [12]) [h]
1 | COC(C)c1cnc(N2CCC([C@H]3C[C@H]3COCc3ccc(S(C)(=O)=O)cc3F)CC2)nc1 (stereo in doubt; 30) |  |  | 70 |  |  |  | 95 |  |  |  |  | 
2 | CC1(OC(=O)N2CCC([C@H]3C[C@H]3COCc3ccc(-n4cnnn4)cc3F)CC2)CC1 | 15 | 4.8 | 108 | 127 (≈ 54.5 µg/mL) | 1 | 3.8 | 121 |  |  |  |  | 
3 | COCc1cnc(N2CCC([C@H]3C[C@H]3COCc3cc(F)c(S(C)(=O)=O)c(F)c3)CC2)nc1 | 5.8 | 4.5 | 67 | 115 (≈ 55.4 µg/mL) | 0.5 | 3.6 | 80 |  |  |  |  | 
4 | COC(C)c1cnc(N2CCC([C@H]3C[C@H]3COCc3ccc(S(C)(=O)=O)cc3F)CC2)nc1 (stereo in doubt; 29) |  |  | 109 |  |  |  | 87 |  |  |  |  | 
5 | CC(C)c1noc(N2CCC([C@H]3C[C@H]3COCc3ccc(S(C)(=O)=O)cc3F)CC2)n1 | 9.9 | 4.2 | 76 | 144 (≈ 65 µg/mL) | 2.2 | 3.8 | 87 |  |  |  |  | 

Results, then the compound that gave them:

Row | EC50 [1] [nM] | EC50 [2] [nM] | Activity [3] [%] | solubility kinetic [4] [µM] | half-life [5] [h] | logD [6] | Activity [7] [%] | CLint scaled [8] [mL/min/kg] | Vd (Rattus norvegicus [9]) [L/kg] | fraction unbound [10] | Vdu (Rattus norvegicus [11]) [L/kg] | t1/2 (Rattus norvegicus [12]) [h] | SMILES
6 | 5.5 | 2.5 | 115 | 140 (≈ 62.7 µg/mL) | 1 | 4.3 | 98 |  |  |  |  |  | CCc1cnc(N2CCC([C@H]3C[C@H]3COCc3ccc(S(C)(=O)=O)c(F)c3)CC2)nc1
7 | 5.2 | 3.3 | 87 | 155 (≈ 71.9 µg/mL) | 1.2 | 3.5 | 94 |  |  |  |  |  | COCc1cnc(N2CCC([C@H]3C[C@H]3COCc3ccc(S(C)(=O)=O)c(F)c3)CC2)nc1
8 |  | 1.7 |  | 61 (≈ 28.4 µg/mL) |  | 4.2 | 69 | 675 | 4.8 | 0.02 | 242 | 6.5 | CCS(=O)(=O)c1ccc(OCC[C@@H]2C[C@@H]2C2CCN(c3nc(C(C)C)no3)CC2)c(F)c1
9 | 1.7 | 2.3 | 121 | 83 (≈ 40.2 µg/mL) | 0.9 | 4.8 | 68 |  |  |  |  |  | O=S(=O)(CCO)c1ccc(COC[C@@H]2C[C@@H]2C2CCN(c3ncc(Cl)cn3)CC2)c(F)c1
10 | 2.5 | 1.5 | 153 | 7 (≈ 3.01 µg/mL) | 1.3 | 3.6 | 83 |  |  |  |  |  | CCc1cnc(N2CCC([C@H]3C[C@H]3COCc3ccc(S(C)(=O)=O)cn3)CC2)nc1

Source: ChEMBL document CHEMBL3621146, “Design of Potent and Orally Active GPR119 Agonists for the Treatment of Type II Diabetes” (ACS Med Chem Lett, 2015)
